Laboratory results taken from ChEMBL document CHEMBL1155763, “The alkaloids of Artabotrys uncinatus” (J Nat Prod, 2001).
Values after ≈ are worked out from the molar mass of the structure shown. Active and inactive are the calls of the source. The rule behind the calls is not given here.

What was measured:
[1] = target: Prothrombin (Homo sapiens) (UniProt P00734); assay: Inhibition of thrombin-mediated conversion of fibrinogen to fibrin
HepG2 = assay: Cytotoxicity against human HepG2 cells; assay type: functional, cell-based
[2] = Cytotoxicity against human HepG2(2.2.15) cells; assay type: functional, cell-based

Structure (SMILES) | Activity [1] | IC50 (HepG2) | IC50 [2]
COC1=C[C@@]23CCN(C)[C@@H](Cc4ccc(OC)c(O)c42)C3=CC1=O | inactive | 10.2 µg/mL (≈ 31.2 µM) | 10.4 µg/mL (≈ 31.8 µM)
COc1c2c3c(c4c1OCO4)-c1ccccc1C[C@H]3N(C(C)=O)CC2 | inactive | 9.8 µg/mL (≈ 29 µM) | 9.3 µg/mL (≈ 27.6 µM)
COc1c2c3c(c4c1OCO4)-c1ccccc1[C@@H](O)[C@H]3NCC2 [ARTABONATINE B] | inactive | 9.1 µg/mL (≈ 29.2 µM) | 11 µg/mL (≈ 35.3 µM)
COc1ccc2c(c1)C(=O)c1nccc3cc4c(c-2c13)OCO4 [ATHEROSPERMIDINE] | inactive | 0.8 µg/mL (≈ 2.62 µM) | 2.2 µg/mL (≈ 7.21 µM)
COC1=C[C@]23CCN(C)[C@H](Cc4cc(OC)c(O)cc42)C3=CC1=O [FLAVINANTINE] | inactive | 9.3 µg/mL (≈ 28.4 µM) | 9.7 µg/mL (≈ 29.6 µM)
NC(=O)N1CCCC1=O [SQUAMOLONE] | inactive | 2.8 µg/mL (≈ 21.9 µM) | 1.6 µg/mL (≈ 12.5 µM)
CC(C)=C1C=C(CN2CCCC2=O)C(=O)O1 [UNCININE] | inactive | 6.1 µg/mL (≈ 27.6 µM) | 7.4 µg/mL (≈ 33.4 µM)
